Measured values as given in PubChem BioAssay AID1259407 (Chemical Carcinogenesis Research Information System (CCRIS), 2018).
Calls of active or inactive are those of the source. The rule behind the calls is not given here.

Test system: CCRIS mutagenicity, Ames/micronucleus/aberration tests
Test: CCRIS mutagenicity studies
[1] = Test System: AMES SALMONELLA TYPHIMURIUM, Strain/Indicator: TA100, Metabolic Activation: NONE, Method: PREINCUBATION
[2] = Test System: AMES SALMONELLA TYPHIMURIUM, Strain/Indicator: TA98, Metabolic Activation: NONE, Method: STANDARD PLATE
[3] = Test System: AMES SALMONELLA TYPHIMURIUM, Strain/Indicator: TA98, Metabolic Activation: RAT, LIVER, S-9, Method: STANDARD PLATE
[4] = Test System: AMES SALMONELLA TYPHIMURIUM, Strain/Indicator: TA100, Metabolic Activation: NONE, Method: STANDARD PLATE
[5] = Test System: AMES SALMONELLA TYPHIMURIUM, Strain/Indicator: TA100, Metabolic Activation: RAT, LIVER, S-9, Method: STANDARD PLATE
[6] = Test System: Mouse lymphoma, Strain/Indicator: L5178Y (tk+/tk-), Metabolic Activation: None, Method: Suspension/plate
[7] = Test System: Mouse lymphoma, Strain/Indicator: L5178Y (tk+/tk-), Metabolic Activation: Rat, Liver, S-9, Aroclor 1254, Method: Suspension/plate

## CC(C)(C)C(=O)C(Oc1ccc(Cl)cc1)n1ccnc1 (stereo unspecified)
Test System: AMES SALMONELLA TYPHIMURIUM, Strain/Indicator: TA98, Metabolic Activation: NONE, Method: PREINCUBATION
  mutagenic call: inactive; negative
Test System: AMES SALMONELLA TYPHIMURIUM, Strain/Indicator: TA98, Metabolic Activation: RAT, LIVER, S-9, PCB, Method: PREINCUBATION
  mutagenic call: inactive; negative
[1]
  mutagenic call: inactive; negative
Test System: AMES SALMONELLA TYPHIMURIUM, Strain/Indicator: TA100, Metabolic Activation: RAT, LIVER, S-9, PCB, Method: PREINCUBATION
  mutagenic call: inactive; negative
Test System: AMES SALMONELLA TYPHIMURIUM, Strain/Indicator: TA1535, Metabolic Activation: NONE, Method: PREINCUBATION
  mutagenic call: inactive; negative
Test System: AMES SALMONELLA TYPHIMURIUM, Strain/Indicator: TA1535, Metabolic Activation: RAT, LIVER, S-9, PCB, Method: PREINCUBATION
  mutagenic call: inactive; negative
Test System: AMES SALMONELLA TYPHIMURIUM, Strain/Indicator: TA1537, Metabolic Activation: NONE, Method: PREINCUBATION
  mutagenic call: inactive; negative
Test System: AMES SALMONELLA TYPHIMURIUM, Strain/Indicator: TA1537, Metabolic Activation: RAT, LIVER, S-9, PCB, Method: PREINCUBATION
  mutagenic call: inactive; negative
Test System: AMES SALMONELLA TYPHIMURIUM, Strain/Indicator: TA1538, Metabolic Activation: NONE, Method: PREINCUBATION
  mutagenic call: inactive; negative
Test System: AMES SALMONELLA TYPHIMURIUM, Strain/Indicator: TA1538, Metabolic Activation: RAT, LIVER, S-9, PCB, Method: PREINCUBATION
  mutagenic call: inactive; negative
Test System: Ames Salmonella typhimurium, Strain/Indicator: TA98, Metabolic Activation: None, Method: Plate incorporation
  mutagenic call: inactive; negative
Test System: Ames Salmonella typhimurium, Strain/Indicator: TA98, Metabolic Activation: None, Method: Preincubation
  mutagenic call: inactive; negative
Test System: Ames Salmonella typhimurium, Strain/Indicator: TA98, Metabolic Activation: Rat, Liver, S-9, Aroclor, Method: Plate incorporation
  mutagenic call: inactive; negative
Test System: Ames Salmonella typhimurium, Strain/Indicator: TA98, Metabolic Activation: Rat, Liver, S-9, Aroclor, Method: Preincubation
  mutagenic call: inactive; negative
Test System: Ames Salmonella typhimurium, Strain/Indicator: TA100, Metabolic Activation: None, Method: Plate incorporation
  mutagenic call: inactive; negative
Test System: Ames Salmonella typhimurium, Strain/Indicator: TA100, Metabolic Activation: None, Method: Preincubation
  mutagenic call: inactive; negative
Test System: Ames Salmonella typhimurium, Strain/Indicator: TA100, Metabolic Activation: Rat, Liver, S-9, Aroclor, Method: Plate incorporation
  mutagenic call: inactive; negative
Test System: Ames Salmonella typhimurium, Strain/Indicator: TA100, Metabolic Activation: Rat, Liver, S-9, Aroclor, Method: Preincubation
  mutagenic call: inactive; negative
Test System: Ames Salmonella typhimurium, Strain/Indicator: TA1535, Metabolic Activation: None, Method: Plate incorporation
  mutagenic call: inactive; negative
Test System: Ames Salmonella typhimurium, Strain/Indicator: TA1535, Metabolic Activation: None, Method: Preincubation
  mutagenic call: inactive; negative
Test System: Ames Salmonella typhimurium, Strain/Indicator: TA1535, Metabolic Activation: Rat, Liver, S-9, Aroclor, Method: Plate incorporation
  mutagenic call: inactive; negative
Test System: Ames Salmonella typhimurium, Strain/Indicator: TA1535, Metabolic Activation: Rat, Liver, S-9, Aroclor, Method: Preincubation
  mutagenic call: inactive; negative
Test System: Ames Salmonella typhimurium, Strain/Indicator: TA1537, Metabolic Activation: None, Method: Plate incorporation
  mutagenic call: inactive; negative
Test System: Ames Salmonella typhimurium, Strain/Indicator: TA1537, Metabolic Activation: None, Method: Preincubation
  mutagenic call: inactive; negative
Test System: Ames Salmonella typhimurium, Strain/Indicator: TA1537, Metabolic Activation: Rat, Liver, S-9, Aroclor, Method: Plate incorporation
  mutagenic call: inactive; negative
Test System: Ames Salmonella typhimurium, Strain/Indicator: TA1537, Metabolic Activation: Rat, Liver, S-9, Aroclor, Method: Preincubation
  mutagenic call: inactive; negative
Test System: E. COLI, Strain/Indicator: WP2 UVRA, Metabolic Activation: NONE, Method: PREINCUBATION
  mutagenic call: inactive; negative
Test System: E. coli, Strain/Indicator: WP2uvrA (pKM101), Metabolic Activation: None, Method: Plate incorporation
  mutagenic call: inactive; negative
Test System: E. coli, Strain/Indicator: WP2uvrA (pKM101), Metabolic Activation: None, Method: Preincubation
  mutagenic call: inactive; negative
Test System: E. coli, Strain/Indicator: WP2uvrA (pKM101), Metabolic Activation: Rat, Liver, S-9, Aroclor, Method: Plate incorporation
  mutagenic call: inactive; negative
Test System: E. coli, Strain/Indicator: WP2uvrA (pKM101), Metabolic Activation: Rat, Liver, S-9, Aroclor, Method: Preincubation
  mutagenic call: inactive; negative
Test System: In vitro micronucleus, Strain/Indicator: Human lymphocytes, Metabolic Activation: None
  mutagenic call: inactive; negative
Test System: In vivo micronucleus, Species: Mouse, Strain/Sex: ICR/Male, Route: Oral (gavage)
  mutagenic call: inactive; negative
Test System: Mouse lymphoma L5178Y/TK+/- cells, Strain/Indicator: WP2 uvrA (pKM101), Metabolic Activation: Rat, Liver, S-9, Aroclor 1254, Method: Suspension/plate
  mutagenic call: inactive; negative
Test System: UDS Rat hepatocytes, Strain/Indicator: Thymidine incorporation, Method: In vivo - in vitro, measurement by autoradiography
  mutagenic call: active; positive

## Cc1ccc(N=Nc2c(O)ccc3ccccc23)c(C)c1
Test System: AMES SALMONELLA TYPHIMURIUM, Strain/Indicator: TA98, Metabolic Activation: HAMSTER, LIVER, S-9, AROCLOR 1254 (5,20%), Method: PREINCUBATION
  mutagenic call: active; positive
Test System: AMES SALMONELLA TYPHIMURIUM, Strain/Indicator: TA98, Metabolic Activation: HAMSTER, LIVER, S-9, AROCLOR 1254, Method: STANDARD PLATE
  mutagenic call: active; positive
Test System: AMES SALMONELLA TYPHIMURIUM, Strain/Indicator: TA98, Metabolic Activation: HAMSTER, LIVER, S-9, Method: PREINCUBATION (PRIVAL METHOD)
  mutagenic call: active; positive
[2]
  mutagenic call: inactive; negative
Test System: AMES SALMONELLA TYPHIMURIUM, Strain/Indicator: TA98, Metabolic Activation: RAT, BLADDER, S-9, PCB, Method: FLUCTUATION TEST
  mutagenic call: inactive; negative
Test System: AMES SALMONELLA TYPHIMURIUM, Strain/Indicator: TA98, Metabolic Activation: RAT, LIVER, S-9, AROCLOR 1254, HAMSTER, LIVER, S-9, AROCLOR 1254, Method: STANDARD PLATE
  mutagenic call: active; positive
[3]
  mutagenic call: inactive; negative
Test System: AMES SALMONELLA TYPHIMURIUM, Strain/Indicator: TA100, Metabolic Activation: HAMSTER, LIVER, S-9, Method: PREINCUBATION (PRIVAL METHOD)
  mutagenic call: active; positive
[4]
  mutagenic call: inactive; negative
Test System: AMES SALMONELLA TYPHIMURIUM, Strain/Indicator: TA100, Metabolic Activation: RAT, BLADDER, S-9, PCB, Method: FLUCTUATION TEST
  mutagenic call: inactive; negative
[5]
  mutagenic call: inactive; negative
Test System: AMES SALMONELLA TYPHIMURIUM, Strain/Indicator: TA1538, Metabolic Activation: RAT, LIVER, S-9, AROCLOR 1254, HAMSTER, LIVER, S-9, AROCLOR 1254, Method: STANDARD PLATE
  mutagenic call: active; positive
[6]
  mutagenic call: inactive; negative
[7]
  mutagenic call: inactive; negative

## [Cl][Ce]([Cl])[Cl]
Test System: E. COLI, Strain/Indicator: WP2 UVRA, Metabolic Activation: NONE, Method: SPOT TEST
  mutagenic call: inactive; negative

## Cc1cc2ccccc2c2ccc3c(c12)[C@@H]1O[C@@H]1[C@H](O)[C@H]3O
[1]
  mutagenic call: active; positive
[4]
  mutagenic call: active; positive

## Oc1ccccc1F
Test System: MOUSE LYMPHOMA, Strain/Indicator: L5178Y (TK+/TK-), Metabolic Activation: RAT, LIVER, S-9, AROCLOR 1254, Method: SUSPENSION/PLATE
  mutagenic call: active; positive. reevaluation of results: positive
[6]
  mutagenic call: inactive; negative
[7]
  mutagenic call: inactive; inconclusive (previous evaluation negative)

## CN(C(=O)c1csc([N+](=O)[O-])c1)c1ccccc1
[2]
  mutagenic call: active; positive
[4]
  mutagenic call: active; positive

## c1ccc2nc3c(cc2c1)-c1cccc2cccc-3c12
[2]
  mutagenic call: inactive; negative
[3]
  mutagenic call: inactive; negative
[4]
  mutagenic call: inactive; negative
[5]
  mutagenic call: inactive; negative
